This is an account of results in patent US20250320246A1, “3-AZASTEROID COMPOUNDS FOR THE TREATMENT OF DISEASES RELATED TO MITROCHONDRIAL FUNCTION” (NZP UK LIMITED, priority 2022, published 2025).

What all share (assay type): cell-based, human
The subject of assay [1] is sporadic PD patient fibroblasts. Nature of the assay: Mitochondrial membrane potential (MMP, TMRM) in sporadic PD patient fibroblasts. As to conditions: Homo sapiens, Fibroblast, 24 h, 3 sporadic PD patient fibroblasts. The method, then: (§1) Primary fibroblast cells were cultured continuously in Glucose based medium (high glucose (4500 mg/L) Dulbecco's Modified Eagle's medium (DMEM; Sigma-Aldrich) supplemented with 10% fetal bovine serum (Sigma-Aldrich), 100 IU/mL penicillin, 100 μg/mL streptomycin (Lonza), 1 mM sodium pyruvate (Sigma-Aldrich) and 50 μg/mL uridine (Sigma-Aldrich)). Unless otherwise stated, 24 hours prior to analysis, the Glucose based medium was exchanged for Galactose based medium (glucose-free DMEM (Gibco) with the same supplementation and in addition, 5 mM galactose (Sigma-Aldrich)). All cells were assessed between passage 6-10.
Fibroblasts were cultured and plated into a greiner black 384 μClear® plate at a concentration of 1000 cells per well in 50 μl of media volume. The plates are left overnight in an incubator to allow the fibroblasts to adhere to the plate surface. The following morning the Glucose based medium is replaced with 25 μl of Galactose based medium. The plates were then dosed with the compounds using an ECHO® 550 liquid handling system. The wells were dosed to provide an 8-point concentration range of 0.06 nM-300 nM of compound. After dosing the wells are topped up with a further 25 μl of Galactose based medium and then left in an incubator for 24 hours. After 24 hours, the medium is removed from the wells and replaced with 25 μl phenol free Minimal essential medium supplemented with 10% FBS, 1% Penicillin-streptomycin, 1% sodium pyruvate, 0.1% uridine, 1% non-essential amino acids and 1% MEM vitamins with 80 nM TMRM (Sigma) and 10 μM Hoechst Stain (Sigma). The plate is returned to the incubator for another hour after which the stain medium is removed and replaced with 25 μl Phenol free MEM. The plate is then imaged using an IN Cell high content microscope (GE Healthcare) with fields of view per well in 2 channels, Cy3 excitation 542 nm, emission 604-64 nm; and the DAPI excitation 350 nm, emission 450-55 nm at 37° C. with CO2. After imaging the plate is disposed of and the images are Data mined using the INCell developer Toolkit (GE Healthcare).
After the assays had been repeated in triplicate per line and compound the data was then inputted into Graph pad Prism 7 software suite where a dose response curve is generated using the default “[Agonist] vs response(three parameters)” equation. […]

Assay [2] deals with iNeurons from sPD patients. Briefly: Mitochondrial membrane potential (MMP) in iNeurons from sPD patients. The conditions noted are these: for EC50: Homo sapiens, sPD patient iNeurons, dosing every 3 days for last 12 days of differentiation; for MMP normalisation (% of controls): sPD patient iNeurons treated, untreated sPD patients 52. The method, then:
(§2) The fibroblasts lines and iNPC lines have previously been characterised and published in Carling et al, 2020.
(§3) Briefly, iNPCs are plated in a 6-well plate and cultured for 2 days in DMEM/F-12 medium with Glutamax™ supplemented with 1% NEAA, 2% B27 (Gibco) and 2.5 μM of DAPT. On day 3, DAPT is removed and the medium is supplemented with 1 μM smoothened agonist (SAG) and FGF8 (75 ng/ml) for additional 10 days. Neurons are replated at this stage. Subsequently SAG and FGF8 are withdrawn and replaced with BDNF (30 ng/ml), GDNF (30 ng/ml), TGF-b3 ([…]) and dcAMP (2 mM, Sigma) for 15 days, as previously described Schwartzentruber et al, 2020 and Carling et al, 2020. Dopaminergic neurons were treated with compounds at concentrations of 0.1 nM, 1 nM, 3 nM, 10 nM, 30 nM and 100 nM dosing every 3 days for the last 12 days of differentiation.
(§4) iNeurons were treated every 3 days for the last 12 days of the differentiation protocol. Cells are plated in 96 well plates; for live imaging cells are incubated for one hour at 37° C. with 80 nM tetramethlyrhodamine (TMRM), 1 μM LysoTracker® Green (Invitrogen) and Hoechst Stain solution (Sigma) at 1 μM before imaging using Opera Phenix™. Cellular ATP measurements are undertaken using ATPlite kit (Perkin Elmer) as per manufacturer's instructions. Mitochondrial reactive oxygen species generation was assessed using mitochondrial NpFR2 (probe; a kind gift from Dr Liz New, University of Sydney, Australia) at 20 μM and Hoechst stain solution at 1 μM for 30 mins at 37° C., then the dyes are removed and cells images using Opera Phenix™. Images generated from the live imaging experiments were analysed using Harmony® (Perkin Elmer software). We developed protocols in order to segment nucleus, cell boundary and processes, mitochondria, lysosomes, autophagosomes. We only analysed the z projection images collected from the z stacks.

The subject of assay [3] is iNeurons from sPD patients. Briefly: Cellular ATP in iNeurons (dopaminergic neurons derived from sPD patients). As to conditions: for EC50: Homo sapiens, Neuron, sPD patient iNeurons, dosing every 3 days for last 12 days of differentiation; for ATP normalisation (% of controls): sPD patient iNeurons treated, untreated sPD patients 50. The method, then:
as §2, §3, §4

Assay [4] relates to sporadic PD patient fibroblasts. Briefly: Cellular ATP levels in sporadic PD patient fibroblasts, full ATP assay. The conditions noted are these: Homo sapiens, Fibroblast, 24 h, 3 sporadic PD patient fibroblasts. The method, then: as §1
The ATP protocol is generally as described in Mortiboys et al 2008. Briefly, fibroblasts were cultured as and plated into white 384 well plates at a concentration of 5000 cells per well in 50 μl of media volume. The plates are left overnight in an incubator to allow the fibroblasts to adhere to the plate surface. The following morning the Glucose based medium is replaced with 25 μl of Galactose based medium. The plates were then spiked with the compounds using a ECHO 550 liquid handling system. The wells were dosed to provide an 8-point concentration range of 0.06 nM-300 nM of compound. After dosing the wells are topped up with a further 25 μl of Galactose based medium and then left in an incubator for 24 hours. Following this incubation, the medium is removed from the plate and the wells are washed twice with sterile PBS. The wells are filled with 25 μl of Sterile PBS followed by 12.5 μl of Lysis solution from the ATPlite™ Luminescence ATP detection assay system (Perkin Elmer), including 16 cell free wells to use as blank controls. The plate is then placed on a rotary shaker for 5 mins at 700 rpm. Following the shaking 12.5 μl of ATP substrate solution (Perkin Elmer) is added to each well and a further 5 min of shaking. The plate is then placed in darkness for 10 minutes prior to reading. Using a PHERAStar® plate reader, luminescence intensity is recorded. Following the ATP assay the plates are immediately assayed for DNA content in a CyQUANT® assay.
Immediately following The ATP assay DNA content is assessed with the CyQUANT® NF Cell Proliferation Assay Kit (ThermoFisher). CyQUANT® buffer is prepared immediately before the assay and is comprised of 1 μl CyQUANT® dye per ml×1 HBSS solution. 12.5 μl of CyQUANT® buffer is added to each well. Plate left in incubator for 1 hour then read on a PHERAStar© Plate reader with excitation at 497 nm and emission at 520 nm.
ATP Quantification for each well is determined using the following formula: […]
After the assays had been repeated in triplicate per line and compound the data was then inputted into Graph pad Prism 7 software suite where a dose response curve is generated using the default “[Agonist] vs response(three parameters)” equation.
From this EC50 values, lowest response and maximal response were taken and used to calculate the Geometric mean between the 5 different lines assessed.

Assay [5] concerns iNeurons from sPD patients. Nature of the assay: Mitochondrial reactive oxygen species (ROS) in iNeurons from sPD patients. The conditions noted are these: sPD patient iNeurons treated; untreated sPD patients 115. The method, then:
as §2, §3, §4

The test system of assay [6] is iNeurons from sPD patients. Nature of the assay: Activated caspase 3 levels (apoptosis) in iNeurons from sPD patients. As to conditions: sPD patient iNeurons treated; untreated sPD patients 162. The method, then: as §2, §3
(§5) Cells are plated into 96 well plates and fixed using 4% paraformaldehyde for 30 minutes. After PBS washes cells are permeabilised using 0.1% Triton™ X-100 for 10 minutes and blocked using 5% goat serum for 1 hour. Cells are incubated with primary antibodies βIII tubulin (Millipore); activated caspase 3 (Cell Signaling); at 4° C. for 16 hours. Cells are washed using PBS-Tween® and incubated with Alexa Fluor™-conjugated secondary antibodies 488 and 568 (Invitrogen) and Hoescht (Sigma) 1 μM prior to imaging. Imaging was performed using the Opera Phenix™ high content imaging system (Perkin Elmer).

Assay [7] concerns sporadic PD patient fibroblasts. Nature of the assay: Cellular ATP levels in sporadic PD patient fibroblasts, Preliminary ATP assay. As to conditions: Homo sapiens, Fibroblast, 24 h, % of vehicle treated sPD fibroblasts, 3 sporadic PD patients. The method, then:
In some cases, a preliminary ATP protocol was used in which EC50 was not determined. The preliminary ATP protocol is generally as described in Mortiboys et al 2008. Briefly, fibroblasts were cultured and plated into white, clear-bottom 384 well plates at a concentration of 4000 cells per well in 50 μl of media volume. The plates are left overnight in an incubator to allow the fibroblasts to adhere to the plate surface. The following morning the Glucose based medium is replaced with 25 μl of Galactose based medium. The cells were then dosed with 100 nM and 1 μM concentrations of the compounds using a ECHO 550 liquid handling system. After dosing the wells are topped up with a further 25 μl of Galactose based medium and then left in an incubator for 24 hours. Following this incubation, the medium is removed from the plate and the wells are washed twice with sterile PBS. The wells are filled with 20 μl of Sterile PBS followed by 10 μl of Lysis solution from the ATPlite™ Luminescence ATP detection assay system (Perkin Elmer), including 14 cell free wells to use as blank controls. The plate is then placed on a rotary shaker for 10 mins at 700 rpm. Following the shaking 10 μl of ATP substrate solution (Perkin Elmer) is added to each well and a further 5 min of shaking. The plate is then incubated in the dark for 10 minutes prior to reading. Using a FLUOstar® Omega plate reader, luminescence intensity is recorded. Following the ATP assay the plates are immediately assayed for DNA content in a CyQUANT® assay.
Immediately following The ATP assay DNA content is assessed with the CyQUANT® NF Cell Proliferation Assay Kit (ThermoFisher). CyQUANT® buffer is prepared immediately before the assay and is comprised of 2 μl CyQUANT® dye per ml×1 HBSS solution. 10 μl of CyQUANT® buffer is added to each well. Cell plates were then incubated for 1 hour before being read on a FLUOStar® Plate reader with excitation at 497 nm and emission at 520 nm.
The ATP Quantification for each well is determined as set out above.

For assay [8], the system named is iNeurons from sPD patients. Nature of the assay: Neuronal morphology (elongation) in iNeurons from sPD patients. The conditions noted are these: sPD patient iNeurons treated; untreated sPD patients 48. The method, then:
as §2, §3, §5
iNeurons were treated every 3 days for the last 12 days of the differentiation protocol. […] Mitochondrial reactive oxygen species generation was assessed using mitochondrial NpFR2 (probe; a kind gift from Dr Liz New, University of Sydney, Australia) at 20 μM and Hoechst stain solution at 1 μM for 30 mins at 37° C., then the dyes are removed and cells images using Opera Phenix™. Images generated from the live imaging experiments were analysed using Harmony® (Perkin Elmer software). […] We only analysed the z projection images collected from the z stacks.

Consider `C[C@H](CCC(=O)O)[C@H]1CC[C@H]2[C@@H]3[C@@H](O)C[C@@H]4CNCC[C@]4(C)[C@H]3CC[C@]12C.Cl` [Compound 28a, 3-Aza-7β-hydroxy-5β-cholan-24-oic acid hydrochloride salt], for which the EC50 in assay [1] (8-point range 0.06 nM-300 nM) is 4.58 nM; in assay [2], 10.3 nM; in assay [3] it was 6.5 nM; in assay [4] (8-point range 0.06 nM-300 nM) it was 10.9 nM. For the same compound, in assay [1] (max response with highest dose of compound (300 nM), read-out: MMP % of vehicle, top %), the Emax was found to be 120%. Further, the activity at 60 pM came out at 96.8% in assay [1] (max response with lowest dose of compound (0.06 nM), read-out: MMP % of vehicle, bottom %) and 98.3% in assay [4] (max response with lowest dose of compound (0.06 nM), read-out: ATP % of vehicle, bottom %). Moreover, in assay [2], the “MMP normalisation (% of controls)” value is on record as 71 % of controls. The “ATP normalisation (% of controls)” value in assay [3] is 89.6 % of controls. Moreover, the Emax at 0.3 µM in assay [4] (max response with highest dose of compound (300 nM), read-out: ATP % of vehicle, top %) came to 137%. Further, the “ROS normalisation (% of controls)” value in assay [5] is listed as 111 % of controls.
Regarding `C[C@H](CCC(=O)O)[C@H]1CC[C@H]2[C@@H]3[C@@H](O)C[C@@H]4C[C@H](O)CC[C@]4(C)[C@H]3CC[C@]12C` [UDCA, ursodeoxycholic acid, reference compound], in assay [6], the “Activated caspase 3 levels” value was 143 % of level in iNeurons from Controls. The activity at 0.1 µM in assay [7] (100 nM, read-out: Average ATP Response 100 nM) stood at 105%. For the same compound, the activity at 1 µM in assay [7] (1 μM, read-out: Average ATP Response 1 μM) worked out at 98.9%. In addition, in assay [2], the EC50 came out at 7.3 nM and the “MMP normalisation (% of controls)” value was 73 % of controls. Also, in assay [3], the midpoint of the response, the EC50, lay at 5 nM and the “ATP normalisation (% of controls)” value was 82 % of controls. Further, the “ROS normalisation (% of controls)” value in assay [5] is on record as 110 % of controls. Besides, the “Neuronal morphology (elongation; % controls)” value in assay [8] came out at 64 % controls.

By EC50 is commonly meant the concentration that produces a half-maximal response. Read a high EC50 as lower potency in that assay.
